Experimental data taken from the NIST ThermoML archive (doi:10.1021/acs.jced.8b00554).

Assay: xn = mol fraction of the nth substance listed
Conditions: Liquid, Vibrating tube method

CCCCCCCCCC [decane] + CCCO
mass density [kg/m3]
Conditions	353.15 K	363.15 K
100 kPa, x2 = 0.1391	–	664.41
100 kPa, x2 = 0.1907	–	663.86
100 kPa, x2 = 0.3001	–	664.03
100 kPa, x2 = 0.4326	–	666.18
100 kPa, x2 = 0.6863	–	680.95
100 kPa, x2 = 0.8711	–	705.01
1000 kPa, x2 = 0.1907	–	665.28
1010 kPa, x2 = 0.1391	–	665.85
1010 kPa, x2 = 0.3001	–	666.15
1010 kPa, x2 = 0.6863	–	682.3
1010 kPa, x2 = 0.8711	–	706.22
1020 kPa, x2 = 0.4326	–	667.3
2000 kPa, x2 = 0.1391	–	667.06
2000 kPa, x2 = 0.1907	–	666.5
2000 kPa, x2 = 0.6863	–	683.55
2000 kPa, x2 = 0.8711	–	707.37
2020 kPa, x2 = 0.3001	–	667.4
2020 kPa, x2 = 0.4326	–	668.51
3000 kPa, x2 = 0.3001	–	668.59
3010 kPa, x2 = 0.1391	–	668.24
3010 kPa, x2 = 0.4326	–	669.77
3010 kPa, x2 = 0.6863	–	684.83
3020 kPa, x2 = 0.1907	–	667.69
3020 kPa, x2 = 0.8711	–	708.57
4010 kPa, x2 = 0.1391	–	669.44
4010 kPa, x2 = 0.1907	–	668.95
4010 kPa, x2 = 0.3001	–	669.83
4010 kPa, x2 = 0.6863	–	686.13
4010 kPa, x2 = 0.8711	–	709.79
4020 kPa, x2 = 0.4326	–	671.06
5000 kPa, x2 = 0.4326	–	672.31
5010 kPa, x2 = 0.1907	–	670.1
5010 kPa, x2 = 0.8711	–	711.06
5020 kPa, x2 = 0.1391	–	670.64
5020 kPa, x2 = 0.3001	–	671.07
5020 kPa, x2 = 0.6863	–	687.44
6010 kPa, x2 = 0.3001	–	672.31
6010 kPa, x2 = 0.8711	–	712.33
6020 kPa, x2 = 0.1391	–	671.83
6020 kPa, x2 = 0.1907	–	671.28
6020 kPa, x2 = 0.4326	–	673.61
6020 kPa, x2 = 0.6863	–	688.73
7010 kPa, x2 = 0.1907	–	672.49
7010 kPa, x2 = 0.6863	–	690.06
7020 kPa, x2 = 0.1391	–	673.03
7020 kPa, x2 = 0.3001	–	673.57
7020 kPa, x2 = 0.4326	–	674.92
7020 kPa, x2 = 0.8711	–	713.62
8000 kPa, x2 = 0.3001	–	674.82
8000 kPa, x2 = 0.4326	–	676.22
8000 kPa, x2 = 0.6863	–	691.39
8010 kPa, x2 = 0.1907	–	673.78
8020 kPa, x2 = 0.1391	–	674.3
8020 kPa, x2 = 0.8711	–	714.86
9000 kPa, x2 = 0.1391	–	675.46
9000 kPa, x2 = 0.3001	–	676.11
9000 kPa, x2 = 0.6863	–	692.72
9010 kPa, x2 = 0.1907	–	675
9010 kPa, x2 = 0.4326	–	677.52
9020 kPa, x2 = 0.8711	–	716.13
10000 kPa, x2 = 0.1391	–	676.67
10000 kPa, x2 = 0.1907	–	676.19
10010 kPa, x2 = 0.3001	690.11	677.41
10010 kPa, x2 = 0.6863	–	694.02
10010 kPa, x2 = 0.8711	731.37	717.4
10020 kPa, x2 = 0.1907	688.55	–
10020 kPa, x2 = 0.4326	–	678.87
11000 kPa, x2 = 0.1391	–	677.93
11000 kPa, x2 = 0.6863	710.38	–
11010 kPa, x2 = 0.3001	691.26	678.66
11010 kPa, x2 = 0.4326	694.72	–
11010 kPa, x2 = 0.6863	–	695.33
11020 kPa, x2 = 0.1391	689.4	–
11020 kPa, x2 = 0.1907	689.66	677.43
11020 kPa, x2 = 0.4326	–	680.14
11020 kPa, x2 = 0.8711	732.51	718.66
12000 kPa, x2 = 0.1391	–	679.09
12000 kPa, x2 = 0.1907	–	678.73
12000 kPa, x2 = 0.3001	–	679.92
12010 kPa, x2 = 0.1391	690.47	–
12010 kPa, x2 = 0.1907	690.83	–
12010 kPa, x2 = 0.4326	695.89	681.46
12010 kPa, x2 = 0.6863	711.53	696.59
12010 kPa, x2 = 0.8711	733.61	719.87
12020 kPa, x2 = 0.3001	692.38	–
13000 kPa, x2 = 0.3001	693.53	–
13000 kPa, x2 = 0.8711	734.68	–
13010 kPa, x2 = 0.1391	691.56	680.3
13010 kPa, x2 = 0.1907	–	679.91
13010 kPa, x2 = 0.3001	–	681.16
13010 kPa, x2 = 0.4326	–	682.71
13010 kPa, x2 = 0.6863	–	697.91
13020 kPa, x2 = 0.1907	691.91	–
13020 kPa, x2 = 0.4326	697.03	–
13020 kPa, x2 = 0.6863	712.69	–
13020 kPa, x2 = 0.8711	–	721.04
14000 kPa, x2 = 0.1907	–	681.11
14000 kPa, x2 = 0.4326	–	683.94
14010 kPa, x2 = 0.1391	–	681.47
14010 kPa, x2 = 0.1907	692.99	–
14010 kPa, x2 = 0.3001	–	682.38
14020 kPa, x2 = 0.1391	692.62	–
14020 kPa, x2 = 0.3001	694.63	–
14020 kPa, x2 = 0.4326	698.13	–
14020 kPa, x2 = 0.6863	713.81	699.14
14020 kPa, x2 = 0.8711	735.8	722.27
15000 kPa, x2 = 0.1907	–	682.24
15000 kPa, x2 = 0.4326	–	685.14
15000 kPa, x2 = 0.6863	–	700.32
15010 kPa, x2 = 0.3001	–	683.55
15010 kPa, x2 = 0.4326	699.22	–
15010 kPa, x2 = 0.6863	714.9	–
15010 kPa, x2 = 0.8711	736.86	723.44
15020 kPa, x2 = 0.1391	693.66	682.58
15020 kPa, x2 = 0.1907	694.05	–
15020 kPa, x2 = 0.3001	695.7	–
16000 kPa, x2 = 0.3001	–	684.7
16000 kPa, x2 = 0.4326	–	686.33
16010 kPa, x2 = 0.1391	694.64	683.66
16010 kPa, x2 = 0.1907	695.08	683.38
16010 kPa, x2 = 0.4326	700.29	–
16010 kPa, x2 = 0.6863	715.98	–
16010 kPa, x2 = 0.8711	–	724.56
16020 kPa, x2 = 0.3001	696.78	–
16020 kPa, x2 = 0.6863	–	701.55
16020 kPa, x2 = 0.8711	737.89	–
17000 kPa, x2 = 0.3001	–	685.86
17000 kPa, x2 = 0.4326	701.32	–
17010 kPa, x2 = 0.1391	–	684.77
17010 kPa, x2 = 0.1907	696.15	684.57
17010 kPa, x2 = 0.3001	697.84	–
17010 kPa, x2 = 0.4326	–	687.43
17010 kPa, x2 = 0.6863	717.03	–
17020 kPa, x2 = 0.1391	695.67	–
17020 kPa, x2 = 0.6863	–	702.7
17020 kPa, x2 = 0.8711	738.93	725.68
18000 kPa, x2 = 0.1391	–	685.82
18000 kPa, x2 = 0.1907	–	685.6
18000 kPa, x2 = 0.3001	–	686.93
18010 kPa, x2 = 0.4326	702.35	–
18010 kPa, x2 = 0.6863	718.05	703.81
18010 kPa, x2 = 0.8711	–	726.78
18020 kPa, x2 = 0.1391	696.65	–
18020 kPa, x2 = 0.1907	697.1	–
18020 kPa, x2 = 0.3001	698.82	–
18020 kPa, x2 = 0.4326	–	688.58
18020 kPa, x2 = 0.8711	739.92	–
19000 kPa, x2 = 0.1391	697.56	686.79
19000 kPa, x2 = 0.4326	–	689.63
19000 kPa, x2 = 0.8711	–	727.82
19010 kPa, x2 = 0.1907	698.02	686.57
19010 kPa, x2 = 0.3001	699.8	687.98
19020 kPa, x2 = 0.4326	703.33	–
19020 kPa, x2 = 0.6863	719.04	704.89
19020 kPa, x2 = 0.8711	740.89	–
20000 kPa, x2 = 0.3001	–	688.93
20000 kPa, x2 = 0.4326	704.33	–
20000 kPa, x2 = 0.6863	720.06	–
20000 kPa, x2 = 0.8711	741.82	728.82
20010 kPa, x2 = 0.1391	698.43	687.72
20010 kPa, x2 = 0.1907	698.94	687.53
20010 kPa, x2 = 0.3001	700.68	–
20010 kPa, x2 = 0.4326	–	690.72
20010 kPa, x2 = 0.6863	–	706
